Reference: a compilation of properties of binary mixtures (doi:10.1016/j.molliq.2016.06.018)

Assay: xn = mol fraction of the nth substance listed
Conditions: 100 kPa

CCCC[n+]1ccn(C)c1.O=S(=O)([N-]S(=O)(=O)C(F)(F)F)C(F)(F)F + CCCCCCCCN1CCCC1=O
x2 = 0
Conditions | speed of sound [m/s]
298.15 K | 1227.9
303.15 K | 1216.8
308.15 K | 1205.8
313.15 K | 1195
318.15 K | 1184.2
323.15 K | 1173.6

CCCCCCCCN1CCCC1=O + CCCC[n+]1ccn(C)c1.O=S(=O)([N-]S(=O)(=O)C(F)(F)F)C(F)(F)F
speed of sound [m/s]
Conditions | x1 = 0.1125 | x1 = 0.2205 | x1 = 0.3048 | x1 = 0.3915 | x1 = 0.5011 | x1 = 0.5983 | x1 = 0.7076 | x1 = 0.7976 | x1 = 0.8911 | x1 = 1
298.15 K | 1234.8 | 1244.9 | 1255.2 | 1268.2 | 1288.3 | 1310.3 | 1341 | 1371.6 | 1406.7 | 1450.2
303.15 K | – | 1233.4 | 1243.4 | – | 1275.5 | 1297 | – | 1356.6 | 1390.5 | 1432.6
308.15 K | 1212.7 | 1222.1 | 1231.6 | – | – | 1283.7 | 1312.7 | 1341.5 | 1374.3 | –
313.15 K | 1201.8 | – | 1219.9 | 1231.6 | 1250 | 1270.4 | 1298.7 | 1326.5 | 1358.3 | 1398
318.15 K | 1190.9 | 1199.6 | 1208.3 | 1219.6 | 1237.5 | 1257.3 | 1284.9 | 1311.7 | 1342.4 | 1380.9
323.15 K | 1180.1 | 1188.4 | 1196.8 | 1207.6 | 1224.9 | 1244.2 | 1271.2 | 1297.1 | – | 1364
